Laboratory results from US20210087217A1, “NUCLEOTIDE HEMI-SULFATE SALT FOR THE TREATMENT OF HEPATITIS C VIRUS” (Atea Pharmaceuticals, Inc., priority 2017, published 2021).

Columns and labels:
[1] = biological target: human mitochondrial RNA-dependent RNA polymerase (POLRMT) (Homo sapiens, UniProt O00411); assay: Incorporation of nucleotide analog triphosphates by human mitochondrial RNA polymerase; format: biochemical; conditions: incorporation by human mitochondrial RNA polymerase
Method: The incorporation of these analogs by human mitochondrial RNA-dependent RNA polymerase (POLRMT) were determined according to Arnold et al. (Sensitivity of Mitochondrial Transcription and Resistance of RNA Polymerase II Dependent Nuclear Transcription to Antiviral Ribonucleotides. PLoS Pathog., 2012, 8, e1003030).

[2] = Head-to-head comparison of plasma levels in dogs dosed with Compound 1 and Compound 2; format: in vivo, dog; conditions: dosed Compound 1 25 mg/kg or Compound 2 30 mg/kg, normalized to a dose of 25 mg/kg
Method: A head-to-head comparison of dogs dosed with Compound 1 and Compound 2 was conducted.

[3] = Plasma profiles of Compound 2 metabolites in rats; conditions: male, Sprague-Dawley, rat, plasma, po, 500 mg/kg
Method: The results for a single 500 mg/kg dose in rats is shown in FIG. 17 and the results for a single 30, 100, or 300 mg/kg dose in monkeys is shown in FIG. 18.

[4] = Plasma profiles of Compound 2 metabolites in monkeys; format: in vivo, cynomolgus monkeys; conditions: cynomolgus monkey, plasma, po
[5] = system: replicons containing the NS5B sequences from HCV patient plasma samples (GT1a, 1b, 2a, 2b, 3a-1, 3a-2, 4a and 4d); assay: Replicons containing NS5B sequences from HCV patient plasma samples (clinical isolates); format: cell-based; conditions: clinical isolates of GT1, GT2, GT3, and GT4, FIG. 24
[6] = Single ascending dose study of Compound 2 in healthy volunteers (Part A): safety, tolerability, pharmacokinetic; format: in vivo, human; conditions: both sexes, human, in vivo
Method: Compound 2 was tested in a single ascending dose (SAD) study to measure its safety, tolerability, and pharmacokinetic in healthy subjects (Part A). Part A was a randomized, double-blind, placebo-controlled SAD study. Healthy subjects in Part A received a single dose of Compound 2 or placebo in the fasting state. Subjects were confined to the clinic from Day −1 to Day 6.
Dosing in each cohort was staggered such that 2 subjects (1 active:1 placebo) were evaluated for 48 hours after dosing before the remainder of the cohort was dosed. Each cohort received Compound 2 in ascending order. Dosing of sequential cohorts occurred based on review of available safety data (through Day 5) and plasma pharmacokinetic data (through 24 h) of the prior cohort.
As pharmacokinetic and safety data emerged from prior cohorts, doses evaluated in Cohorts 3a-4a were adjusted by increments no more than 100 mg.
Healthy volunteers in the Part A portion of the study were male and female subjects between the ages of 18 and 65. Active and placebo recipients were pooled within each Part A cohort to preserve the study blind.
(§1) Pharmacokinetic of Compound 1 and nucleoside metabolite 1-7 were measured following the single dose of Compound 2. […] Values are reported as mean±SD, except or Tmax where median (range) is reported.

[7] = Single ascending dose study of Compound 2 in GT1-HCV infected patients (Part B): safety, tolerability, pharmacokinetic; format: in vivo, human; conditions: for AUC / Cmax / half-life: mean±SD
Method: Subjects in Part B received a single dose of Compound 2 in the fasting state. Patients were confined to the clinic from Day −1 to Day 6.
Part B was initiated after the safety (through Day 5) and plasma pharmacokinetic (through 24 h) data review from Cohort 3a in Part A. Available safety data (through Day 5) and pharmacokinetic data (through 24 h) was reviewed for the first cohort in Part B (Cohort 1b) before enrolling subsequent Part B cohorts. Subsequent Part B cohorts were only dosed following review of available safety and pharmacokinetic data from the respective doses in Part A as well as available safety (through Day 5) from the prior Part B cohorts.
Patients infected with HCV were treatment-naïve, non-cirrhotic GT1-infected subjects with a viral load of ≥5 log10 IU/mL.
as §1
Plasma exposure of Compound 1 was dose-related while exposure of metabolite 1-7 was dose-proportional.

[8] = in vitro; conditions: rat
[9] = Solubility in biorelevant test medias (water, SGF, FaSSIF, FeSSIF)
[10] = human, in vivo, 100 mg, GT1-HCV infected patients, Compound 2 100 mg
[11] = human, in vivo, 300 mg, GT1-HCV infected patients, Compound 2 300 mg (first 300 mg line)
[12] = human, in vivo, 300 mg, GT1-HCV infected patients, Compound 2 300 mg (second 300 mg line)
[13] = human, in vivo, 400 mg, GT1-HCV infected patients, Compound 2 400 mg
[14] = human, in vivo, 600 mg, GT1-HCV infected patients, Compound 2 600 mg

human mitochondrial RNA-dependent RNA polymerase (POLRMT), sequence (O00411 42-1230): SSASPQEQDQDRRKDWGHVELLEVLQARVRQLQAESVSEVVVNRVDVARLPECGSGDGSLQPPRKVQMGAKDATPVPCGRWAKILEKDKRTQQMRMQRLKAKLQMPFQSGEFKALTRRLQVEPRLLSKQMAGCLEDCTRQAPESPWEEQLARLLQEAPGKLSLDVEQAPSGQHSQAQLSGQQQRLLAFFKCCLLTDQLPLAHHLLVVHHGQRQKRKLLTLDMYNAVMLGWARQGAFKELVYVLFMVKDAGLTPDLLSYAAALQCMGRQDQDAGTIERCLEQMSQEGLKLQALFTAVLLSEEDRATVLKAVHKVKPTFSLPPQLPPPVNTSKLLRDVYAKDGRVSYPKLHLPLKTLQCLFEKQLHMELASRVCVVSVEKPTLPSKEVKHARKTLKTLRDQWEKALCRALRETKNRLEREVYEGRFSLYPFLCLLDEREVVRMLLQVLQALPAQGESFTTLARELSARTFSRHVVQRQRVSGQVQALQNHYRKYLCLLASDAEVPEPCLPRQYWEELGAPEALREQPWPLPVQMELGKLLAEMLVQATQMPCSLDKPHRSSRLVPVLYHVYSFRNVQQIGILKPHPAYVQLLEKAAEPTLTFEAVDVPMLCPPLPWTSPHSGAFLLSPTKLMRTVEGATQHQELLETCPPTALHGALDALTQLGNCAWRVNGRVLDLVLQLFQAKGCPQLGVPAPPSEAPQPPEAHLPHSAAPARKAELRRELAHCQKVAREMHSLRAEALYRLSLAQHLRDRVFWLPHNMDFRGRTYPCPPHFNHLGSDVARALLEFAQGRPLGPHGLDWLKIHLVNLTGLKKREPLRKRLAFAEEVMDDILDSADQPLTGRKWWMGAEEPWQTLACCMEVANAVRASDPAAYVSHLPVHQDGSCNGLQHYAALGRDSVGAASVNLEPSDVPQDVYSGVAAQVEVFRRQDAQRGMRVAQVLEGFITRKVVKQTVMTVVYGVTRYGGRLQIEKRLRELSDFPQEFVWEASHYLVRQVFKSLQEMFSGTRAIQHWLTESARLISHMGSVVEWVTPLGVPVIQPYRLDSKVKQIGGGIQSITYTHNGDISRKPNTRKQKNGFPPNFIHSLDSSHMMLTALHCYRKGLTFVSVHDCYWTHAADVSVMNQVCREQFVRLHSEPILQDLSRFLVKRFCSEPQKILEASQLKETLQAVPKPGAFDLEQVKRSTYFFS

SMILES: C[C@@]1(O)[C@H](O)[C@@H](COP(=O)(O)OP(=O)(O)OP(=O)(O)O)O[C@H]1n1cnc2c(=O)[nH]c(N)nc21 [2'-C-methyl GTP]
- Kpol [1]: 0.051 s⁻¹

SMILES: CC1(F)C(O)C(COP(=O)(O)OP(=O)(O)OP(=O)(O)O)OC1n1ccc(=O)[nH]c1=O (stereo not drawn) [2’-deoxy-2’-F-2’-C-methyl UTP]
- Kpol [1]: 0.00034 s⁻¹

SMILES: CNc1nc(N)nc2c1ncn2[C@@H]1O[C@H](CO[P@@](=O)(N[C@@H](C)C(=O)OC(C)C)Oc2ccccc2)[C@@H](O)[C@@]1(C)F [Compound 1, isopropyl((S)-(((2R,3R,4R,5R)-5-(2-Amino-6-(methylamino)-9H-purin-9-yl)-4-fluoro-3-hydroxy-4-methyltetrahydrofuran-2-yl)methoxy)(phenoxy)phosphoryl)-L-alaninate]
- Mean Dose-normalized AUC(0-4hr) for Compound 1 [2]: 0.2 µM·h
- AUC(0-t) [3]: 78.2 ng·h/mL
- Cmax [3]: 60.8 ng/mL
- Tmax [3]: 15 min
- AUC(0-t) ([4]; 30 mg/kg): 176 ng·h/mL
- Cmax ([4]; 30 mg/kg): 63.5 ng/mL
- Tmax ([4]; 30 mg/kg): 0.5 to 2 h
- AUC(0-t) ([4]; 100 mg/kg): 1100 ng·h/mL
- Cmax ([4]; 100 mg/kg): 783 ng/mL
- Tmax ([4]; 100 mg/kg): 1 to 2 h
- AUC(0-t) ([4]; 300 mg/kg): 1600 ng·h/mL
- Cmax ([4]; 300 mg/kg): 501 ng/mL
- EC95 [5]: less than 25 ng/mL
- AUC ([6]; 50 mg): 36.4 ± 12.3 ng·h/mL
- Cmax ([6]; 50 mg): 46.4 ± 17.6 ng/mL
- Tmax ([6]; 50 mg): 30 min
- half-life ([6]; 50 mg): 19.2 ± 1.2 min
- AUC ([6]; 100 mg): 167 ± 110 ng·h/mL
- Cmax ([6]; 100 mg): 156 ± 96.3 ng/mL
- Tmax ([6]; 100 mg): 30 min
- half-life ([6]; 100 mg): 31.8 ± 14.4 min
- AUC ([6]; 200 mg): 656 ± 255 ng·h/mL
- Cmax ([6]; 200 mg): 818 ± 443 ng/mL
- Tmax ([6]; 200 mg): 30 min
- half-life ([6]; 200 mg): 42.6 ± 9.6 min
- AUC ([6]; 400 mg): 1110 ± 326 ng·h/mL
- Cmax ([6]; 400 mg): 1190 ± 401 ng/mL
- Tmax ([6]; 400 mg): 30 min
- half-life ([6]; 400 mg): 51.6 ± 9 min
- Tmax ([7]; GT1-HCV infected patients, Compound 2 300 mg (second 300 mg line), median (range)): 0.5 (0.5-1.0) h
- AUC [7, 10]: 179 ± 54.4 ng·h/mL
- Cmax [7, 10]: 212 ± 32 ng/mL
- half-life [7, 10]: 32.4 ± 7.2 min
- Tmax ([7]; human, in vivo, 100 mg, read-out: Tmax): 30 min
- AUC [7, 11]: 818 ± 475 ng·h/mL
- Cmax [7, 11]: 871 ± 590 ng/mL
- half-life [7, 11]: 38.4 ± 12 min
- AUC [7, 12]: 1860 ± 1020 ng·h/mL
- Cmax [7, 12]: 2280 ± 893 ng/mL
- half-life [7, 12]: 50.4 ± 10.8 min
- Tmax ([7]; human, in vivo, 300 mg, read-out: Tmax): 30 min
- AUC [7, 13]: 2410 ± 1010 ng·h/mL
- Cmax [7, 13]: 2680 ± 2110 ng/mL
- half-life [7, 13]: 51.6 ± 10.8 min
- Tmax ([7]; human, in vivo, 400 mg, read-out: Tmax): 60 min
- AUC [7, 14]: 4130 ± 1130 ng·h/mL
- Cmax [7, 14]: 3540 ± 1650 ng/mL
- half-life [7, 14]: 42 ± 7.8 min
- Tmax ([7]; human, in vivo, 600 mg, read-out: Tmax): 60 min
- half-life [8]: < 2 min
- Appearance in solubility test ([9]; FaSSIF): Turbid
- Solubility descriptive term ([9]; FaSSIF): Slightly Soluble
- Appearance in solubility test ([9]; FeSSIF): Turbid
- Solubility descriptive term ([9]; FeSSIF): Slightly Soluble
- Appearance in solubility test ([9]; SGF): Clear Solution
- Solubility descriptive term ([9]; SGF): Sparingly
- Appearance in solubility test ([9]; Water): Clear Solution*
- Solubility descriptive term ([9]; Water): Slightly Soluble
